Earlier results on two compounds are cited in US8263648B2, “Diebenzofuran derivatives as inhibitors of PDE-4 and PDE-10” (Mylan Laboratories Ltd., priority 2006, dated 2012).

For orientation: Km means the concentration of substrate that gives half-maximal velocity.

For series [1] the following is noted: oral dosages of up to 100 mg/kg.
In series [2] the target is PDE10A1 (Homo sapiens, UniProt Q9Y233). The settings on record: substrate of PDE10A1, a splice variant of PDE10.
Sequence of PDE10A1 (Q9Y233 1-779 isoform Q9Y233-1): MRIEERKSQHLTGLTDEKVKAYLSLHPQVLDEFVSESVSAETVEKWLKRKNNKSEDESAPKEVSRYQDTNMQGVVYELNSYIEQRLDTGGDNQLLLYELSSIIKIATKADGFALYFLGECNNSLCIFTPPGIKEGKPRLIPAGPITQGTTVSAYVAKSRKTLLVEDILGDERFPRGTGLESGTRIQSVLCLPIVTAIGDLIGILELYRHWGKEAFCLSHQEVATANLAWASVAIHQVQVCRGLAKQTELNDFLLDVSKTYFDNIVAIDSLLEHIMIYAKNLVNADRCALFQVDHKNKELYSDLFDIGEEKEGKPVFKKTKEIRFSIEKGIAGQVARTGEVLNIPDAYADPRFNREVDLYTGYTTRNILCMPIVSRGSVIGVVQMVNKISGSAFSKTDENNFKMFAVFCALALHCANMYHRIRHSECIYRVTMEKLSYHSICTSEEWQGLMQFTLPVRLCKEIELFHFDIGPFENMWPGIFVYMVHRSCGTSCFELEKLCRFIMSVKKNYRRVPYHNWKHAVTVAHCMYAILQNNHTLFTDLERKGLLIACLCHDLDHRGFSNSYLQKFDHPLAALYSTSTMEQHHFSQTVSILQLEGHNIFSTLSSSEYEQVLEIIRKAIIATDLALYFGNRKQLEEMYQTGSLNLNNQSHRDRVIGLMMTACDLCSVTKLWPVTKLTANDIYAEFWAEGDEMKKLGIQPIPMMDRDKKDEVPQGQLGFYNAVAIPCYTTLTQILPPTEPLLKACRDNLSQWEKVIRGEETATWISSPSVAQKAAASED

With `CS(=O)(=O)Nc1ccc2oc3c(OC(F)F)ccc(C(=O)Nc4c(Cl)cncc4Cl)c3c2c1` [GRC3886], the emetic effect entry in series [1] is listed as “no emetic effect”.

In the case of `Nc1nc2c(ncn2[C@@H]2O[C@@H]3COP(=O)(O)O[C@H]3[C@H]2O)c(=O)[nH]1` [cGMP], the Km in series [2] was 3 µM.
